The test system of one test is NB-4. The test can be described thus: Cell viability (CellTiter-Glo). In kind it is cell-based, Human. Particulars: Homo sapiens, NB-4, 72 h, read-out: NB-4 Viability 72 h IC50. As to the method: The compound 18a was tested in 16 different cell lines. For 6-day compound treatment 1700 cells per well were plated in a 384-well plate (Corning #781098) and incubated overnight at 37° C./5% CO2. […] Afterwards, 20 μL CellTiter-Glo reagent (Promega, #G7570) was added to each well outside of the incubator and the plates were read for luminescence on a Spark® multimode microplate reader (Tecan). Data was fit in GraphPad Prism 8 to a nonlinear regression curve to determine the IC50 of the compounds. […]
For orientation: ATP-based viability assays read luminescence as a measure of living cells.

Another test deals with MOLM 13. As to the kind of experiment: Cell viability (CellTiter-Glo), 6-day compound treatment. In kind it is cell-based, Human. Particulars: Homo sapiens, MOLM-13, 144 h, read-out: MOLM 13 Viability 6 d IC50. As to the method:
The compound 18a was tested in 16 different cell lines. For 6-day compound treatment 1700 cells per well were plated in a 384-well plate (Corning #781098) and incubated overnight at 37° C./5% CO2. The following day, compounds in 10-fold dilutions were added to the plates and the plates were incubated for 6 days. Afterwards, 20 μL CellTiter-Glo reagent (Promega, #G7570) was added to each well outside of the incubator and the plates were read for luminescence on a Spark® multimode microplate reader (Tecan). Data was fit in GraphPad Prism 8 to a nonlinear regression curve to determine the IC50 of the compounds. […]

A further test concerns SKOV-3. The test can be described thus: Cell viability (CellTiter-Glo), 48 hrs. In kind it is cell-based. The following applies: Homo sapiens, SK-OV-3, 48 h, read-out: SKOV-3 Viability 48 h IC50. As to the method:
One thousand seven hundred cells per well were plated in a 384 well plate and incubated overnight at 37° C./5% CO2. The following day, compounds in 10-fold dilutions were added to the plates and the plates returned to the incubator for 48 hrs. 48 hrs later, plates were removed to the bench and 20 μL CellTiter-Glo reagent was added to each well and the plates were read for luminescence on a Spark® multimode microplate reader (Tecan). Data were fit using PRISM to a nonlinear regression curve to determine the IC50 of the compounds.

The next test concerns the target BIR3 domain of cIAP1 (Homo sapiens, UniProt Q13490). As to the kind of experiment: Fluorescence polarization assay. Particulars: SMAC-FITC probe, Ki calculated from IC50. In kind it is binding. As to the method:
Binding of compounds to ML-IAP and BIR3 domain of cIAP1, cIAP2 and XIAP was determined by fluorescence polarization. Assay buffer was 100 mM KH2PO4 at pH 7.5, 50 μM ZnSO4, 1 mM TCEP (Tris(2-carboxyethyl)phosphine hydrochloride) and 50 nM SMAC-FITC probe (AbuRPF-K(5-Fam)-NH2) as described by Z. Nikolovska-Coleska et al.^9. cIAP1 and XIAP were present at 800 nM while cIAP2 and MLIAP were present at 1.5 μM. Compounds in 3-fold dilutions were added to the plates ranging from 30 μM to 1.5 nM. Assays were run in 384-well black plates read (Greiner Bio-One #784076) in an Analyst in fluorescence polarization mode with excitation at 485 nm and emission at 535 nm. Data was fit to a nonlinear regression curve in GraphPad Prism 8 to determine the IC50 values of the compounds. Ki's were then calculated from the IC50 values using equation: Ki=[I]50/([L]50/Kd+[P]0/Kd+1) formulated by Z. Nikolovska-Coleska et al.

In test [1] the test system is latently infected cell line Jurkat 2D10. The test can be described thus: HIV Jurkat 2D10 cells GFP+ assay (reversal of HIV latency). In kind it is cell-based. Particulars: Homo sapiens, Jurkat, 48 h, read-out: Jurkat 2D10 GFP+ EC50. As to the method: Several compounds (Table 5) were tested for their efficacy in the reversal of HIV latency in the latently infected cell line Jurkat 2D10. Jurkat 2D10 cells were treated with different doses of the compounds, or one of the following compounds: BV-6, SM-164, Birinapant, LCL-161, GDC-0152, AT-406 for 48 hours. Reversal of HW latency was evaluated by analyzing GFP expression using flow cytometry. Induction of GFP expression was compared to baseline GFP levels detected in the absence of treatment.

Here are results for nine compounds from patent US12678509B2, “Inhibitor of apoptosis (IAP) protein antagonists” (Sanford Burnham Prebys Medical Discovery Institute, priority 2019, dated 2026).

Molecules are shown by their SMILES.

Sequence of BIR3 domain of cIAP1 (Q13490 253-363 limits assumed): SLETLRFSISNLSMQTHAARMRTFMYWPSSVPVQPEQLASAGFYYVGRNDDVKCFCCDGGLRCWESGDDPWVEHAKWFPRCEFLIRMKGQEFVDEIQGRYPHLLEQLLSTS

In the case of `CN[C@@H](C)C(=O)N[C@H]1CCS[C@H]2CC(C)(C)[C@@H](C(=O)N[C@H]3c4ccccc4C[C@H]3OCC#CCO[C@@H]3Cc4ccccc4[C@@H]3NC(=O)[C@H]3N4C(=O)[C@@H](NC(=O)[C@H](C)NC)CCS[C@H]4CC3(C)C)N2C1=O` [Compound 18j], the IC50 (usually the concentration that inhibits the measured activity by half) in the test on NB-4 was < 10 nM; in the test with MOLM 13 it was 1000 to 10000 nM; in the test on SKOV-3, 10 to 100 nM. Besides, on BIR3 domain of cIAP1, the inhibition constant (Ki) (usually a measure of affinity in units of concentration, obtained from inhibition or displacement) was ≤ 50 nM. Moreover, the EC50 (as a rule, the midpoint of the concentration-response curve) in test [1] is 1000 to 10000 nM.
As to `CNC(C)(C)C(=O)N[C@H]1CCS[C@H]2CC(C)(C)[C@@H](C(=O)N[C@H]3c4ccccc4C[C@H]3OCC#CC#CCO[C@@H]3Cc4ccccc4[C@@H]3NC(=O)[C@H]3N4C(=O)[C@@H](NC(=O)C(C)(C)NC)CCS[C@H]4CC3(C)C)N2C1=O` [Compound 18k, 1-{[(4S,7S,9aS)-7-({(1S,2R)-2-[(6-{[(1S,2R)-1-({[(4S,7S,9aS)-8,8-Dimethyl-4-{[2-methyl-2-(methylammonio)propanoyl]amino}-5-oxooctahydropyrrolo[2,1-b][1,3]thiazepin-7-yl]carbonyl}amino)-2,3-dihydro-1H-inden-2-yl]oxy}hexa-2,4-diyn-1-yl)oxy]-2,3-dihydro-1H-inden-1-yl}carbamoyl)-8,8-dimethyl-5-oxooctahydropyrrolo[2,1-b][1,3]thiazepin-4-yl]amino}-N,2-dimethyl-1-oxopropan-2-ammonium dichloride], the IC50 in the test on NB-4 fell in the range of 10 to 100 nM; in the test with MOLM 13 it was 1000 to 10000 nM; in the test on SKOV-3 it was 100 to 1000 nM. Besides, the Ki on BIR3 domain of cIAP1 was 50 to 100 nM. Further, in test [1], the EC50 was > 10000 nM.
`CN[C@@H](C)C(=O)N[C@H]1CCS[C@H]2CC(C)(C)[C@@H](C(=O)N[C@H]3c4ccccc4C[C@H]3OCCS(=O)(=O)CCO[C@@H]3Cc4ccccc4[C@@H]3NC(=O)[C@H]3N4C(=O)[C@@H](NC(=O)[C@H](C)NC)CCS[C@H]4CC3(C)C)N2C1=O` [Compound 18h, (2S)-1-{[(4S,7S,9aS)-7-{[(1S,2R)-2-{2-[(2-{[(1S,2R)-1-({[(4S,7S,9aS)-8,8-Dimethyl-4-{[(2S)-2-(methylammonio)propanoyl]amino}-5-oxooctahydropyrrolo[2,1-b][1,3]thiazepin-7-yl]carbonyl}amino)-2,3-dihydro-1H-inden-2-yl]oxy}ethyl)sulfonyl]ethoxy}-2,3-dihydro-1H-inden-1-yl]carbamoyl}-8,8-dimethyl-5-oxooctahydropyrrolo[2,1-b][1,3]thiazepin-4-yl]amino}-N-methyl-1-oxopropan-2-ammonium dichloride]: the values for the IC50 with NB-4 and with SKOV-3 were < 10 nM and 10 to 100 nM, respectively. The inhibitory constant (Ki) on BIR3 domain of cIAP1 is ≤ 50 nM. In test [1], the 50% effective concentration (EC50) was 10 to 100 nM.
Consider `CN[C@@H](C)C(=O)N[C@H]1CCS[C@H]2CC(C)(C)[C@@H](C(=O)N[C@H]3c4ccccc4C[C@H]3OCc3ccc(-c4ccc(CO[C@@H]5Cc6ccccc6[C@@H]5NC(=O)[C@H]5N6C(=O)[C@@H](NC(=O)[C@H](C)NC)CCS[C@H]6CC5(C)C)cc4)cc3)N2C1=O` [Compound 18f, (2S)-1-{[(4S,7S,9aS)-7-{[(1S,2R)-2-({4-[4-({[(1S,2R)-1-({[(4S,7S,9aS)-8,8-Dimethyl-4-{[(2S)-2-(methylammonio)propanoyl]amino}-5-oxooctahydropyrrolo[2,1-b][1,3]thiazepin-7-yl]carbonyl}amino)-2,3-dihydro-1H-inden-2-yl]oxy}methyl)phenyl]benzyl}oxy)-2,3-dihydro-1H-inden-1-yl]carbamoyl}-8,8-dimethyl-5-oxooctahydropyrrolo[2,1-b][1,3]thiazepin-4-yl]amino}-N-methyl-1-oxopropan-2-ammonium dichloride], for which the IC50 with NB-4 was < 10 nM; in the test on MOLM 13 it was 100 to 1000 nM; in the test with SKOV-3 it was < 10 nM. Also, the inhibition constant (Ki) on BIR3 domain of cIAP1 was 50 to 100 nM. Further, the EC50 in test [1] is 1 to 10 nM.
As for `CN[C@@H](C)C(=O)N[C@H]1CCS[C@H]2CC3(CCCC3)[C@@H](C(=O)N[C@H]3c4ccccc4C[C@H]3OCC#CC#CCO[C@@H]3Cc4ccccc4[C@@H]3NC(=O)[C@H]3N4C(=O)[C@@H](NC(=O)[C@H](C)NC)CCS[C@H]4CC34CCCC4)N2C1=O` [Compound 18r], the EC50 in test [1] lay in the range of 10 to 100 nM.
Consider `CN[C@@H](C)C(=O)N[C@H]1CCS[C@H]2CC(C)(C)[C@@H](C(=O)N[C@H](CCC(=O)NCCNC(=O)CC[C@@H](NC(=O)[C@H]3N4C(=O)[C@@H](NC(=O)[C@H](C)NC)CCS[C@H]4CC3(C)C)c3ccccc3)c3ccccc3)N2C1=O` [Compound 18l, (2S)-1-{[(4S,7S,9aS)-74{(1R)-4-[(2-{[(4R)-4-({[(4S,7S,9aS)-8,8-Dimethyl-4-{[(2S)-2-(methylammonio)propanoyl]amino}-5-oxooctahydropyrrolo[2,1-b][1,3]thiazepin-7-yl]carbonyl}amino)-4-phenylbutanoyl]amino}ethyl)amino]-4-oxo-1-phenylbutyl}carbamoyl)-8,8-dimethyl-5-oxooctahydropyrrolo[2,1-b][1,3]thiazepin-4-yl]amino}-N-methyl-1-oxopropan-2-ammonium dichloride], for which the figures for the IC50 in the test with NB-4 and with SKOV-3 were 10 to 100 nM and 100 to 1000 nM, respectively. For the same compound, the Ki at BIR3 domain of cIAP1 is ≤ 50 nM. The EC50 in test [1] lay in the range of 100 to 1000 nM.
On to `C=CCC1(CC=C)C[C@@H]2SCC[C@H](NC(=O)[C@H](C)NC)C(=O)N2[C@@H]1C(=O)N[C@H]1c2ccccc2C[C@H]1OCC#CC#CCO[C@@H]1Cc2ccccc2[C@@H]1NC(=O)[C@H]1N2C(=O)[C@@H](NC(=O)[C@H](C)NC)CCS[C@H]2CC1(CC=C)CC=C` [Compound 18n, (2S)-2-{[(4S,7S,9aS)-7-{[(1S,2R)-2-[(6-{[(1S,2R)-1-[(4S,7S,9aS)-4-[(2S)-2-(Methylamino)propanamido]-5-oxo-8,8-bis(prop-2-en-1-yl)-octahydropyrrolo[2,1-b][1,3]thiazepine-7-amido]-2,3-dihydro-1H-inden-2-yl]oxy}hexa-2,4-diyn-1-yl)oxy]-2,3-dihydro-1H-inden-1-yl]carbamoyl}-5-oxo-8,8-bis(prop-2-en-1-yl)-octahydropyrrolo[2,1-b][1,3]thiazepin-4-yl]carbamoyl}-2-(methylazaniumyl)ethanide dichloride], for which the IC50 in the test on MOLM 13 was in the range of 100 to 1000 nM; in the test with SKOV-3, 10 to 100 nM. Further, at BIR3 domain of cIAP1, the Ki was 50 to 100 nM. In test [1], the EC50 lay in the range of 10 to 100 nM.
With `CN[C@@H](C)C(=O)N[C@H]1CCS[C@H]2CC(C)(C)[C@@H](C(=O)N[C@H]3c4ccccc4C[C@H]3OCC#Cc3cccc(C#CCO[C@@H]4Cc5ccccc5[C@@H]4NC(=O)[C@H]4N5C(=O)[C@@H](NC(=O)[C@H](C)NC)CCS[C@H]5CC4(C)C)c3)N2C1=O` [Compound 18d], the results for the IC50 in the test with NB-4, with MOLM 13 and in the test on SKOV-3 were < 10 nM, 100 to 1000 nM and < 10 nM, respectively. In addition, the Ki on BIR3 domain of cIAP1 is ≤ 50 nM. Also, the EC50 in test [1] is < 1 nM.
As to `CN[C@@H](C)C(=O)N[C@H]1CCS[C@H]2C[C@H](O)[C@@H](C(=O)N[C@H]3c4ccccc4C[C@H]3OCC#CC#CCO[C@@H]3Cc4ccccc4[C@@H]3NC(=O)[C@@H]3[C@@H](O)C[C@@H]4SCC[C@H](NC(=O)[C@H](C)NC)C(=O)N43)N2C1=O` [Compound 18p, [(1S)-1-{[(4S,7S,8S,9aS)-7-{[(1S,2R)-2-[(6-{[(1S,2R)-1-[(4S,7S,8S,9aS)-8-Hydroxy-4-[(2S)-2-(methylazaniumyl)propanamido]-5-oxo-octahydropyrrolo[2,1-b][1,3]thiazepine-7-amido]-2,3-dihydro-1H-inden-2-yl]oxy}hexa-2,4-diyn-1-yl)oxy]-2,3-dihydro-1H-inden-1-yl]carbamoyl}-8-hydroxy-5-oxo-octahydropyrrolo[2,1-b][1,3]thiazepin-4-yl]carbamoyl}ethyl](methyl)azanium dichloride], in test [1], the EC50 lay in the range of 100 to 1000 nM.
